Patent US5019385A, “Novel lymphopine LK 2 and pharmaceutic compositions containing same” (Kabushiki Kaisha Hayashibara Seibutsu Kagaku Kenkyujo, priority 1984, dated 1991)
Where a name gives a salt, the structure may show the parent alone.

What was measured:
[1] = test system: PC-8; assay: enhancement of antioncotic effect of chemotherapeutics by LK 2 (Experiment C-1, Table V); format: cell-based, human; conditions: ACNU 1.0×10^-6, 5-FU 1.5×10^-8, ADM 1.0×10^-10, MMC 2.5×10^-9 g/ml culture, VCR 1.5×10^-10 g/culture
Method: (§1) One human malignant tumor cell suspension (10^6 cells) was inoculated on 1 ml of conventional-type nutrient culture medium supplemented with foetal calf serum, and then cultured for one day. Thereafter, there was added to the culture 0.1 ml of saline containing 100 units of an LK 2 specimen, prepared by the method in Experiment A-3, and/or a chemotherapeutic, and cultured for an additional two days at 37° C.
(§2) As the control, an LK 2- and chemotherapeutic-free saline was used.
(§3) After completion of the culture, the number of viable cells was counted in accordance with the method in Experiment B-1, and the growth inhibition (%) was then determined.
(§4) The concentrations of the tested chemotherapeutics were as follows: nimustine hydrochloride (ACNU), 1.0×10^-6 g/ml culture; fluorouracil (5-FU), 1.5×10^-8 g/ml culture; doxorubicin (ADM), 1.0×10^-10 g/ml culture; mitomycin C (MMC), 2.5×10^-9 g/ml culture; and vincristine sulfate (VCR), 1.5×10^-10 g/culture.

[2] = test system: HEp#2; assay: as above; format: cell-based, human; conditions: ACNU 1.0×10^-6, 5-FU 1.5×10^-8, ADM 1.0×10^-10, MMC 2.5×10^-9 g/ml culture, VCR 1.5×10^-10 g/culture
Method: as §1, §2, §3, §4

[3] = test system: MKN 7; assay: as above; format: cell-based, human; conditions: ACNU 1.0×10^-6, 5-FU 1.5×10^-8, ADM 1.0×10^-10, MMC 2.5×10^-9 g/ml culture, VCR 1.5×10^-10 g/culture
Method: as §1, §2, §3, §4

[4] = test system: HLE; assay: as above; format: cell-based, human; conditions: ACNU 1.0×10^-6, 5-FU 1.5×10^-8, ADM 1.0×10^-10, MMC 2.5×10^-9 g/ml culture, VCR 1.5×10^-10 g/culture
Method: as §1, §2, §3, §4

[5] = test system: HeLa; assay: as above; format: cell-based, human; conditions: ACNU 1.0×10^-6, 5-FU 1.5×10^-8, ADM 1.0×10^-10, MMC 2.5×10^-9 g/ml culture, VCR 1.5×10^-10 g/culture
Method: as §1, §2, §3, §4

[6] = test system: human breast cancer tissue; assay: tumor mass in nude mice, LK 2 and/or mitomycin C (Experiment C-2, Table VI); format: in vivo, human tissue in BALB/c nude mice; conditions: MMC 1 mg/kg per day i.v., twenty days; control 10.8 ± 1.0; * significant vs control (5%)
Method: A group of BALB/c nude mice was transplanted subcutaneously in their dorsum areas with small fragments of human breast cancer tissue.
After the tumor masses grew to about 200 mm^3 in the bodies of the animals, saline containing an LK 2 preparation, obtained by the method described in Experiment A-3, and/or mitomycin C (MMC) was injected intravenously once every day for twenty days.
Thereafter, the animals were sacrificed, and the resultant tumor masses were weighed.
as §2

| Compound | growth inhibition (%) to tumor cell ([1]; +, with LK 2 100 units) | growth inhibition (%) to tumor cell ([1]; -, without LK 2) | growth inhibition (%) to tumor cell ([2]; +, with LK 2 100 units) | growth inhibition (%) to tumor cell ([2]; -, without LK 2) | growth inhibition (%) to tumor cell ([3]; +, with LK 2 100 units) | growth inhibition (%) to tumor cell ([3]; -, without LK 2) | growth inhibition (%) to tumor cell ([4]; +, with LK 2 100 units) | growth inhibition (%) to tumor cell ([4]; -, without LK 2) | growth inhibition (%) to tumor cell ([5]; +, with LK 2 100 units) | growth inhibition (%) to tumor cell ([5]; -, without LK 2) | Tumor mass [6] |
| --- | --- | --- | --- | --- | --- | --- | --- | --- | --- | --- | --- |
| CC[C@]1(O)C[C@H]2CN(CCc3c([nH]c4ccccc34)[C@@](C(=O)OC)(c3cc4c(cc3OC)N(C=O)[C@H]3[C@@](O)(C(=O)OC)[C@H](OC(C)=O)[C@]5(CC)C=CCN6CC[C@]43[C@@H]65)C2)C1 (stereo in doubt) [VCR, vincristine sulfate] | 72% | 8% | 66% | 5% | 70% | 6% | 69% | 10% | 63% | 10% |  |
| Cc1ncc(CNC(=O)N(CCCl)N=O)c(N)n1 [ACNU, nimustine hydrochloride] | 71% | 2% | 67% | 4% | 73% | 4% | 75% | 5% | 71% | 5% |  |
| COc1cccc2c1C(=O)c1c(O)c3c(c(O)c1C2=O)C[C@@](O)(C(=O)CO)C[C@@H]3O[C@H]1C[C@H](N)[C@H](O)[C@H](C)O1 [ADM, doxorubicin] | 71% | 6% | 70% | 13% | 69% | 5% | 73% | 7% | 62% | 7% |  |
| O=c1[nH]cc(F)c(=O)[nH]1 [5-FU, fluorouracil] | 85% | 10% | 80% | 8% | 77% | 6% | 81% | 8% | 69% | 12% |  |
| CO[C@@]12[C@H](COC(N)=O)C3=C(C(=O)C(C)=C(N)C3=O)N1C[C@@H]1N[C@@H]12 [MMC, mitomycin C] | 68% | 5% | 72% | 10% | 73% | 3% | 74% | 12% | 61% | 7% | 5.1 ± 0.4 g |
